One series deals with rabbit red blood cells. It is filed as cell-based. The protocol: Haemolytic activity of peptides and antifungal drugs were determined against rabbit red blood cells (Oren et al., 1997). Briefly, serial dilution of peptides/antifungals in PBS was mixed with rRBC (final concentration 4% v/v), incubated at 37° C. for 1 h and centrifuged at 3000 rpm for 10 minutes. The release of hemoglobin in the supernatant was monitored by measuring the hemoglobin absorbance at 576 nm. The readings from cell suspension in PBS (without any additives) or 1% Triton-X100 were used as 0% or 100% haemolysis.

Another series concerns fungi. To be noted: cited from earlier work.
The next series relates to C. albicans. As to the kind of experiment: microbe, parasite or virus in culture. It is filed as cell-based. The protocol: The yeast strains were cultivated and suspended in Sabouraud's Dextrose (SD) broth diluted at one sixth at a starting OD600=˜0.08 in a flat-bottomed microtitre plate. A serial dilution of peptide in the same broth was mixed with the inoculum to give a final peptide concentration of 0.4-22 μM. The antifungal activity was assessed by monitoring the OD600 in cycles of 30 minutes and an orbital shaking at 100 rpm using an Infinite M200 microplate reader (Tecan Group Ltd., Switzerland) for 24/48 h at 37° C. Cultures without peptides were used as positive controls and broth alone or with 22 μM peptide served as negative controls. The minimum concentration required for complete inhibition was assessed by both visible observations as well as by measuring the OD600 and taken as the MIC. Each experiment was repeated in triplicates.

Series [1] deals with C. albicans (ATCC 10231 and DF2672R). It counts as cell-based. The protocol: The time-kill kinetics was measured for two strains of C. albicans (ATCC 10231 and DF2672R). The cultures were grown overnight in SD broth and the cell concentration was adjusted to 10^5-10^6 CFU/ml with phosphate buffer. The peptide or antifungals were added to the individual cultures. […] The test solution was incubated at 37° C. with constant shaking. 100 μL of the suspension is withdrawn at predetermined time points, serially diluted (10^2 or 10^3 fold) and poured into the SDA plate. The plate was incubated for 48 h at 37° C. for colony counting. The data were expressed in terms of % cell viability relative to the positive control.

For another series, the system named is IOBA-NHC cells. It is filed as cell-based, human. The conditions noted are these: 24 h incubation; read-out: EC50 (concentration that reduces the viable cells by 50%). Put shortly: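 Subconfluent (~70%) IOBA-NHC conjunctival cells, passages 50–80, seeded ~10,000/well and grown 24 h at 37 °C in supplemented DMEM/F12 with 10% FBS. Exposed to peptide at 0.22–225 μM; cytotoxicity followed over time by MultiTox-Fluor […] fluorescence (ex 485/em 520 nm).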

In brackets after ≈: the same amount, converted by molar mass. Entries after “also recorded” stand apart in the source; their conditions may differ. Like-named read-outs stand apart in the source and are kept apart here.

The HC50 is the concentration that lyses half of the red blood cells. Read a low HC50 as stronger haemolysis. The molecule `C[C@@H]1C/C=C/C=C/C=C/C=C/[C@H](O[C@@H]2O[C@H](C)[C@@H](O)[C@H](N)[C@@H]2O)C[C@@H]2O[C@](O)(C[C@@H](O)C[C@H]3O[C@@H]3/C=C/C(=O)O1)C[C@H](O)[C@H]2C(=O)O` [Natamycin, reference compound] registered a concentration for 50% haemolysis (HC50) in the series on rabbit red blood cells (rabbit, 1 h) of 139.6 ± 0.18 µM. Also, the Activity entry in the series on fungi is “Broad spectrum”. Besides, the MIC in the series with C. albicans (Candida albicans, C. albicans DF2672R) stood at 15 µM (≈ 9.99 µg/mL). Further, the “time required to achieve similar endpoints (4 log reduction)” value in series [1] (ATCC strain, 16×MIC) amounted to 24 h. Moreover, the fungicidal action entry in series [1] (C. albicans DF2672R, 2×MIC, 24 h exposure) is listed as “no fungicidal action”.

Take `C[C@@H]1[C@H](O)[C@@H](C)/C=C/C=C/C=C/C=C/C=C/C=C/C=C/[C@H](O[C@@H]2O[C@H](C)[C@@H](O)[C@H](N)[C@@H]2O)C[C@@H]2O[C@](O)(C[C@@H](O)C[C@@H](O)[C@H](O)CC[C@@H](O)C[C@@H](O)CC(=O)O[C@H]1C)C[C@H](O)[C@H]2C(=O)O` [Amphotericin B, reference compound]: in the series with IOBA-NHC cells, the EC50 was found to be 134 ± 16 µM. In the series on rabbit red blood cells, this molecule returned a 50% haemolytic concentration (HC50) of 59.4 ± 7.8 µM. Also, the Activity entry with fungi is reported as “Broad spectrum; also recorded: Excellent agains Aspergilus & Candida”. In the series with C. albicans (two C. albicans clinical isolates), the “MIC for two C. albicans clinical isolates” value stood at 1.4 µM. Besides, the “time to maximal effect” value in series [1] (C. albicans DF2672R, 16×MIC) is “less than 8 h”.

The values above are taken from patent US20150225454A1, “TETRABRANCHED PEPTIDES AND ANALOGUES AS A NEW CLASS OF ANTIMICROBIALS AND THEIR PREPARATION THEREOF” (priority 2012, published 2015).
